Assay results from ChEMBL document CHEMBL1156672, “Selectivity criterion for pyrazolo[3,4-b]pyrid[az]ine derivatives as GSK-3 inhibitors: CoMFA and molecular docking studies” (Eur J Med Chem, 2008).

Molecular target: Cyclin-dependent kinase 2 (Homo sapiens, UniProt P24941)

IC50: 5 nM
Compound: O=C(NC1=NNC2=CC=CC21)C1CC1 (stereo unspecified)
